As a reminder, the IC50 is the midpoint of a concentration-inhibition curve.

This test deals with T1, Xanthine oxidase (XOD) (Bos taurus, UniProt P80457).
T1 construct: gene XDH
The test is described as follows: spectrophotometric XOD inhibition assay at […] nm with xanthine substrate, cow milk enzyme. It is filed as biochemical.

T1 sequence (P80457 2-1332): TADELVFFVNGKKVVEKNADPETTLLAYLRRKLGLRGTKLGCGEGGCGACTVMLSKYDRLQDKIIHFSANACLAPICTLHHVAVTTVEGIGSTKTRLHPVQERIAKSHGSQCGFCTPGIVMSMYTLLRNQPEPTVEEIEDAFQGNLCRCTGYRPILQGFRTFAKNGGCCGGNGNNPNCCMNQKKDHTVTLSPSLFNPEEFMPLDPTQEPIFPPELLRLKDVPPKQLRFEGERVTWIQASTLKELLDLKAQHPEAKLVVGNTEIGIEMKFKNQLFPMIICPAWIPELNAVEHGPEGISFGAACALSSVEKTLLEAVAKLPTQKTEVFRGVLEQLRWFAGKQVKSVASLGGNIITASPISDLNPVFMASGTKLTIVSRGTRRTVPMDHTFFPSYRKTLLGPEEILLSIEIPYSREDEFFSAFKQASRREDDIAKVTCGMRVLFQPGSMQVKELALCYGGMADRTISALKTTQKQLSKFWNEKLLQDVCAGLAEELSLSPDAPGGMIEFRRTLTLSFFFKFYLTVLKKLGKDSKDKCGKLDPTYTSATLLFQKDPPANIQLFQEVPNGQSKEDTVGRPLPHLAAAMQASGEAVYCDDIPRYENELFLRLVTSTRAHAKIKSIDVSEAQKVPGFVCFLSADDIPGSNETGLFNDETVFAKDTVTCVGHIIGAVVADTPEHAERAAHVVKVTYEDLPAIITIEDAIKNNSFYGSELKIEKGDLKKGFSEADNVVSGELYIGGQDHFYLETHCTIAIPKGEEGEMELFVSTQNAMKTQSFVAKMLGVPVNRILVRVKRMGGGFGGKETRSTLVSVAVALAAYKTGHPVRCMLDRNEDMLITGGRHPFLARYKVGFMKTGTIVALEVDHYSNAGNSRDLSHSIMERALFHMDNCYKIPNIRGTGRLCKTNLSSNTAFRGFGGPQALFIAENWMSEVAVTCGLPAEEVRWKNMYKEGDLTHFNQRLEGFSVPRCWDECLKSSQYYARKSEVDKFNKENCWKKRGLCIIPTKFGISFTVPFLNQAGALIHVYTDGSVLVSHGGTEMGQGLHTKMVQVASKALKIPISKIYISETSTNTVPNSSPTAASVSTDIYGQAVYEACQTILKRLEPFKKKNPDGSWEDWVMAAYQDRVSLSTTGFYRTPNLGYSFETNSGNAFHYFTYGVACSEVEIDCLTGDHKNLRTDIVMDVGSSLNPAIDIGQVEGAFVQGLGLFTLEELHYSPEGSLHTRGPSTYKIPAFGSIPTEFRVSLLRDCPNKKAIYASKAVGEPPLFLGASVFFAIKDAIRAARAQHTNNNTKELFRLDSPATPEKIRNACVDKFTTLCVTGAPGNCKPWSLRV

Take `COc1ccc2c(c1OC)CN1CCc3cc4c(cc3C1=C2)OCO4` [DHB, Dihydroberberine]: the IC50 came out at 34.4 ± 2.84 µM.

The values above are taken from paper PMC8093860, “Anti-Hyperuricemic and Nephroprotective Effects of Dihydroberberine in Potassium Oxonate- and Hypoxanthine-Induced Hyperuricemic Mice” (Frontiers in Pharmacology, 2021).
